These are literature values, as cited in patent US20130071408A1, “Methods for Diagnosis and Treatment of Non-Insulin Dependent Diabetes Mellitus” (priority 2010, published 2013).

The data set concerns the target CD44 and HA (Homo sapiens, UniProt P16070). As to conditions: cell-based assay; read-out: IC50 value, inhibits the binding of CD44 and HA.

CD44 and HA, sequence (P16070 21-742): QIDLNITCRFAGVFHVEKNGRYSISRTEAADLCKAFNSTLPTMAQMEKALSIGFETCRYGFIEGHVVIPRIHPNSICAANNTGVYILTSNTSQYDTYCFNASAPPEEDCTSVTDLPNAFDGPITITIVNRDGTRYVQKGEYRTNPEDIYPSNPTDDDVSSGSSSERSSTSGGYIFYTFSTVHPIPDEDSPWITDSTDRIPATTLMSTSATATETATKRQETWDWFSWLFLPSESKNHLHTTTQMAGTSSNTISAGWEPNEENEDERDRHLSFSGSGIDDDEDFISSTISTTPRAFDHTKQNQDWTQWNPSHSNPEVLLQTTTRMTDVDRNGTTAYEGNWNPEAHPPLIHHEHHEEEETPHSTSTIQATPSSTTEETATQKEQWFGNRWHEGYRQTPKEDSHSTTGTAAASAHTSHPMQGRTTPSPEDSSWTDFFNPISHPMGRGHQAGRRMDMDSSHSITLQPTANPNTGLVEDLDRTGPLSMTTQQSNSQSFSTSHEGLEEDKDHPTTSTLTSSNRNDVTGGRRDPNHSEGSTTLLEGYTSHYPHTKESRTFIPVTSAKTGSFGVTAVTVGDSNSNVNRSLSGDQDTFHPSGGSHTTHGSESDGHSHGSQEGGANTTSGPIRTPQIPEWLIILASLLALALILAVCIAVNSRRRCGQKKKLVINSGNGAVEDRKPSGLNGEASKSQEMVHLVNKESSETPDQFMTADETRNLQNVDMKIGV

For orientation: IC50 means the midpoint of a concentration-inhibition curve. For the compound `CCCCCCC(O)CCCC(CCCCCCCCCCCCCC(O)C(=O)O)OC1OCC(O)C(O)C1OC1OCC(OC(C)=O)C(O)C1OC1OC(COC(C)=O)C(O)C(O)C1O` (stereo not shown) [F-19848 A], the concentration for half-maximal inhibition (IC50) was 23.5 µM.
